According to patent US5753681A, “Treatment and prophylaxis of pancreatitis” (Sankyo Company, Limited, priority 1996, dated 1998):
Read-outs that look alike come from different tables or passages of the source.

Key:
[1] = Increase in the pancreatic weight in a model of spontaneous chronic pancreatitis (3 months); type: in vivo, male WBN/Kob rats; conditions: treated group, 0.2% in feed, 140 mg/kg/day, three months; control 773 ± 17; **p < 0.01 vs. control
Text: (§1) Since the decrease in the amount of pancreatic parenchyma resulting from chronic pancreatitis causes loss of pancreatic weight, any suppression of the decrease in the amount of pancreatic parenchyma can be used as an index for evaluating any improvement in the pancreatitis. Furthermore, since degeneration and necrosis of the pancreatic parenchyma and its replacement by connective tissue occurs in chronic pancreatitis, the seriousness of the pancreatitis can be estimated by histopathologically measuring the area over which the pancreatic parenchyma is replaced with connective tissue (known as the "cicatrized area").
(§2) Measurement of the weight of the pancreas may be carried out by conventional procedures after the experimental animals have been sacrificed by phlebotomy.
The test animals were male WBN/Kob rats, which are commonly used as models of spontaneous chronic pancreatitis and suffer pancreatic weight loss and dysfunction of the exocrine pancreatic tissue due to degeneration and necrosis of the pancreatic parenchyma and its replacement by connective tissue [Tsuchitani et al., Laboratory Animals, 19(3), 200-207, (1985)]. […] After the rats had been fed with the feeds for three months, the pancreas of each animal was totally enucleated and its weight was measured.

[2] = Effect of long term treatment on pancreatic weight; type: in vivo, male WBN/Kob rats; conditions: 9.5 months; for Pancreatic weight: control 804 ± 35
Procedure: (§3) The test animals were male WBN/Kob rats. Each group of test animals contained 6 animals, and the animals were used for the experiment when they had reached 12 weeks old. The animals were fed with powdered feed F2 mixed with 0.2% or 0.05% of troglitazone for 9.5 months. These groups are hereinafter referred to as "the 0.2% group" and "the 0.05% group", respectively. The average doses of the compound during this period were 120 mg/kg/day and 30 mg/kg/day, respectively. Meanwhile, another six rats (control group) were fed with the powdered feed F2 only. After the rats had been fed with the feeds for 9.5 months, each rat was decapitated and its blood was collected. The blood serum was separated and the plasma lipase level was measured using an autoanalyser (type 7250, manufactured by Hitachi Ltd.).
After the blood had been collected, the pancreas of each animal was totally enucleated and weighed.

Acute toxicity = type: in vivo, ddY mice (male); conditions: single oral dose of 300 mg/kg, observed for 5 days, three mice
Procedure: Acute toxicity was assayed by conventional procedures. […] At the end of this time, the animals were all alive. When the acute toxicities of Compounds No. 2, 3, 4 and 10 were measured in the same manner, the mice were all alive after an oral dose of 300 mg/kg or more.

[3] = type: in vivo, Wistar-Imamichi rats; conditions: 170 mg/kg/day
Text: as §1, §2
The effects of pancreatitis may be simulated, as is conventional, in experimental animals, by the administration of streptozotocin [(N-methylnitroso-carbamoyl)-D-glucosamine: R. A. Bennett et al., Cancer Res., 41, 2786-2790, (1981); a product of Sigma Chemical Company], which is capable of specifically destroying the Langerhans islet B cells and which thus induces a decrease in pancreatic weight. Streptozotocin is administered intravenously to the experimental animal, and then a powdered feed admixed with a test compound is given to a group of animals which have been dosed with streptozotocin. This group is hereafter referred to as the "treated group". Meanwhile, a powdered feed only is given to another group of animals which have been dosed with streptozotocin. This group is hereafter referred to as the "control group". Normal animals (undosed) fed with the feed only are also used as a blank group against the experimental animals (dosed with streptozotocin). After the test compounds have been administered to the animals for a predetermined period, each animal is sacrificed to measure its pancreatic weight. […]
Meanwhile, another group of rats was fed with the powdered feed F2 only. […] After a predetermined period, the rats were sacrificed and the pancreatic weight of each animal was measured.

[4] = Histopathology of pancreatic tissue of Example 2: total cross-sectional area and cicatrized area; type: in vivo, male WBN/Kob rats; conditions: 0.2% in feed, three months
Text: as §1
(§4) The measurement of the cicatrized area may also be carried out by conventional procedures. More specifically, male WBN/Kob rats are used as models of spontaneous chronic pancreatitis and are fed with a powdered feed admixed with a test compound. The pancreas of each animal is then totally enucleated. Its weight is measured and also the cicatrized area is measured relative to the total cross-sectional area of the pancreas tissue sliced by an image analyser.
The test animals were male WBN/Kob rats, which are commonly used as models of spontaneous chronic pancreatitis and suffer pancreatic weight loss and dysfunction of the exocrine pancreatic tissue due to degeneration and necrosis of the pancreatic parenchyma and its replacement by connective tissue [Tsuchitani et al., Laboratory Animals, 19(3), 200-207, (1985)]. Each group of test animals contained 4 animals, and the animals were used for the experiment when they had reached 12 weeks old. The animals were fed with powdered feed F2 mixed with 0.2% of troglitazone for three months. This group is hereinafter referred to as "the treated group". The average dose of the compound during this period was 140 mg/kg/day. Meanwhile, another four rats (control group) were fed with the powdered feed F2 only. After the rats had been fed with the feeds for three months, the pancreas of each animal was totally enucleated and its weight was measured.
In order to evaluate the results of Example 2 histopathologically, each pancreas used for weight measurement in Example 2 was fixed in 10% neutral formalin. It was then divided into a spleen side half and a duodenum side half, and each half was sliced at 3 mm intervals to provide cross-sectional tissue pieces. […] The total cross-sectional area of the pancreatic tissue piece on each preparation was measured using an image analyser (SPICCAII, manufactured by Olympus Optical Co., Ltd.).
(§5) In addition, the surface area of the zone which had undergone degeneration and necrosis and in which the exocrine pancreatic tissue was replaced with connective tissue (the cicatrized area) was measured using an image analyser.

[5] = Histopathology of pancreatic tissue of Example 6: total cross-sectional area and cicatrized area; type: in vivo, male WBN/Kob rats; conditions: 9.5 months; for Cicatrized area in the exocrine pancreatic tissue: **p < 0.01
Procedure: as §4
In order to evaluate the results of Example 2 histopathologically, each pancreas used for weight measurement in Example 2 was fixed in 10% neutral formalin. It was then divided into a spleen side half and a duodenum side half, and each half was sliced at 3 mm intervals to provide cross-sectional tissue pieces. All of these tissue pieces were subjected to paraffin sectioning by conventional procedures and then to hematoxylin-eosin staining and Masson's trichrome staining to prepare two tissue preparations, which were used for histopathological examination. The total cross-sectional area of the pancreatic tissue piece on each preparation was measured using an image analyser (SPICCAII, manufactured by Olympus Optical Co., Ltd.).
as §5, §3
In order to evaluate the results of Example 6 histopathologically, the total cross-sectional area and cicatrized area of each pancreas whose weight was measured in Example 6 was measured by the procedure described in Example 4.

Question: For Cc1c(C)c2c(c(C)c1O)CCC(C)(COc1ccc(CC3SC(=O)NC3=O)cc1)O2 (centres unmarked) [troglitazone, 5-[4-(6-Hydroxy-2,5,7,8-tetramethylchroman-2-ylmethoxy)benzyl]thiazolidine-2,4-dione], which Pancreatic weight [1] is on record?
Answer: Its Pancreatic weight is 936 ± 27 mg.

Question: And the “Pancreatic weight” value ([2]; 0.05% group, 30 mg/kg/day in feed)?
Answer: Its value is 906 ± 63 mg.

Question: And the “Pancreatic weight” value ([2]; 0.2% group, 120 mg/kg/day in feed, ***p < 0.001)?
Answer: Its value is 1164 ± 52 mg.

Question: What about the “Pancreatic weight (in words)” value ([2]; both the 0.2% group and the 0.05% group, vs. control group) of the same compound?
Answer: Its value is “significant increase”.

Question: What about the “Survival (acute toxicity)” value (Acute toxicity) of the same compound?
Answer: The value was “all alive”.

Question: And the “Inhibition of pancreatic weight loss (in words)” value ([3]; 0.2% in feed, 14 days, vs. control group)?
Answer: The value was “significantly inhibited the pancreatic weight loss”.

Question: What about the “Lesions such as edema in the pancreas” value ([3]; rat, in vivo) of the same compound?
Answer: Its value is “no lesions such as edema”.

Question: What about the Pancreatic weight ([3]; treated group, 0.2% in feed, 14 days, after streptozotocin 25 mg/kg i.v., normal 1333 ± 43, control 1253 ± 39, *p < 0.05 vs. control) of the same compound?
Answer: Its Pancreatic weight is 1435 ± 40 mg.

Question: What about the “Cicatrized area in the exocrine pancreatic tissue” value (“Cicatrized area” below) ([4]; duodenum side half, control 10.84 ± 0.60, *p < 0.05) of the same compound?
Answer: The value was 6.76 ± 1.37 mm^2.

Question: What about the “Total cross-sectional area of pancreatic tissue piece” value (from here on “Total cross-sectional area”) ([4]; duodenum side half, control 89.5 ± 6.6) of the same compound?
Answer: Its value is 132.8 ± 23.6 mm^2.

Question: What about the “Cicatrized area” value ([4]; spleen side pancreatic half, control 5.95 ± 0.90, *p < 0.05) of the same compound?
Answer: Its value is 3.31 ± 0.48 mm^2.

Question: And the “Total cross-sectional area” value ([4]; spleen side pancreatic half, control 150.5 ± 4.6, *p < 0.05)?
Answer: The value was 172.6 ± 5.3 mm^2.

Question: What about the “Cicatrized area” value ([5]; duodenum side, 0.05% group, control 2.48 ± 0.39) of the same compound?
Answer: Its value is 1.03 ± 0.16 mm^2.

Question: And the “Total cross-sectional area” value ([5]; duodenum side, 0.05% group, control 106.1 ± 6.6)?
Answer: Its value is 110.6 ± 7.7 mm^2.

Question: And the “Cicatrized area” value ([5]; duodenum side, 0.2% group, control 2.48 ± 0.39)?
Answer: Its value is 0.65 ± 0.06 mm^2.

Question: And the “Total cross-sectional area” value ([5]; duodenum side, 0.2% group, control 106.1 ± 6.6)?
Answer: Its value is 122.3 ± 7.4 mm^2.

Question: What about the “Cicatrized area” value ([5]; spleen side pancreatic half, 0.05% group, control 4.96 ± 0.82) of the same compound?
Answer: The value was 1.68 ± 0.12 mm^2.

Question: What about the “Total cross-sectional area” value ([5]; spleen side pancreatic half, 0.05% group, control 103.0 ± 16.9) of the same compound?
Answer: Its value is 96.2 ± 8.2 mm^2.

Question: What about the “Cicatrized area” value ([5]; spleen side pancreatic half, 0.2% group, control 4.96 ± 0.82) of the same compound?
Answer: Its value is 1.23 ± 0.19 mm^2.

Question: And the “Total cross-sectional area” value ([5]; spleen side pancreatic half, 0.2% group, control 103.0 ± 16.9, *p < 0.05)?
Answer: Its value is 141.9 ± 10.6 mm^2.
